# In patent publication US20250101041A1, “POSITIVE ALLOSTERIC MODULATORS OF THE MUSCARINIC ACETYLCHOLINE RECEPTOR M4” (Vanderbilt University, priority 2022, published 2025):
# Biological target: T1, human mAChR M4 (Homo sapiens, UniProt P08173)
# T1 construct: expressed in transfected cells; host or cells: CHO-K1 (American Type Culture Collection), stably expressing hM4 and Gqi5
# T1 sequence (P08173 1-479): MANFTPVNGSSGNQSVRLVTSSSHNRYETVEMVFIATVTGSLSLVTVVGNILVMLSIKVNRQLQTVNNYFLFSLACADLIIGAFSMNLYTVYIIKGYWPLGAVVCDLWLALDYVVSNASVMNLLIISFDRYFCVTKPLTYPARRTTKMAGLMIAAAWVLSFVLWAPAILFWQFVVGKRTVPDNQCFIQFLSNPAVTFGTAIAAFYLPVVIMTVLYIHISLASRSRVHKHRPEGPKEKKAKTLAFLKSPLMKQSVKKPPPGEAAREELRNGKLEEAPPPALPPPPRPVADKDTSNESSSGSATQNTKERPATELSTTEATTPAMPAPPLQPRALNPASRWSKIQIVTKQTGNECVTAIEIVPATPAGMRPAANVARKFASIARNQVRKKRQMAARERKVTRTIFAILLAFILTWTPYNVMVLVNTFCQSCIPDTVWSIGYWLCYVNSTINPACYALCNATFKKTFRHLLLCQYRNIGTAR
# Assay: mAChR M4 cell-based functional assay: calcium mobilization (Fluo-4, FDSS), potentiation of EC20 acetylcholine response in hM4-Gqi5 CHO-K1 cells
# Settings: human M4; for Emax at 30 µM: CHO-K1, % ACh maximum at 30 μM; for EC50: potentiation of EC20 acetylcholine response, calcium mobilization
# Outline: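 Readout is the fluorescence-ratio rise at 1 Hz on FDSS, with PAM activity taken as concentration-dependent enhancement of the EC20 acetylcholine response, fitted four-parameter for EC50/Emax. hM4-Gqi5 CHO-K1 cells carried Fluo-4 AM dye; test compounds (11 points, 1:3) preceded EC20 acetylcholine additions at 144 s and 230 s.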
SMILES,Emax at 30 µM,EC50
"Cc1ccccc1-c1cnc2c(c1)CN(c1nn3c(=O)ccnc3c(C)c1C)CC2 [Compound 1-222, 8,9-dimethyl-7-(3-(o-tolyl)-7,8-dihydro-1,6-naphthyridin-6(5H)-yl)-4H-pyrimido[1,2-b] pyridazin-4-one]",83%,0.074 µM
"Cc1cc2nccc(=O)n2nc1N1CCc2ncc(N3CCOC(c4ccccc4)C3)cc2C1 (stereo not drawn) [Compound 2-66, 8-methyl-7-(3-(2-phenylmorpholino)-7,8-dihydro-1,6-naphthyridin-6(5H)-yl)-4H-pyrimido[1,2-b]pyridazin-4-one]",79%,0.652 µM
"Cc1cc(F)ncc1-c1cnc2c(c1)CN(c1nn3c(=O)ccnc3c(C)c1C)CC2 [Compound 1-149, 7-(3-(6-Fluoro-4-methylpyridin-3-yl)-7,8-dihydro-1,6-naphthyridin-6(5H)-yl)-8,9-dimethyl-4H-pyrimido[1,2-b]pyridazin-4-one]",89%,0.068 µM
"Cc1cc2nccc(=O)n2nc1N1CCc2ncc(-c3ccccc3C(C)(F)F)cc2C1 [Compound 1-433, 7-(3-(2-(1,1-difluoroethyl)phenyl)-7,8-dihydro-1,6-naphthyridin-6(5H)-yl)-8-methyl-4H-pyrimido[1,2-b]pyridazin-4-one]",41%,1.25 µM
"Cc1cc2nccc(=O)n2nc1N1CCc2ncc(-c3cc(F)ccn3)cc2C1 [Compound 1-354, 7-(3-(4-fluoropyridin-2-yl)-7,8-dihydro-1,6-naphthyridin-6(5H)-yl)-8-methyl-4H-pyrimido [1,2-b]pyridazin-4-one]",63%,2.54 µM
"Cc1ccc(-c2cnc3c(c2)CN(c2nn4c(=O)c(C)c(C)nc4cc2C)CC3)cn1 [Compound 1-83, 2,3,8-trimethyl-7-(3-(6-methylpyridin-3-yl)-7,8-dihydro-1,6-naphthyridin-6(5H)-yl)-4H-pyrimido[1,2-b]pyridazin-4-one]",87%,0.209 µM
"Cc1ncc(-c2cnc3c(c2)CN(c2nn4c(=O)ccnc4cc2C)CC3)s1 [Compound 1-5, 8-methyl-7-(3-(2-methylthiazol-5-yl)-7,8-dihydro-1,6-naphthyridin-6(5H)-yl)-4H-pyrimido[1,2-b]pyridazin-4-one]",86%,0.422 µM
"Cc1cc2ncc(N3CCOCC3)c(=O)n2nc1N1CCc2ncc(C(F)(F)F)cc2C1 [Compound 1-19, 8-Methyl-3-morpholino-7-(3-(trifluoromethyl)-7,8-dihydro-1,6-naphthyridin-6(5H)-yl)-4H-pyrimido[1,2-b]pyridazin-4-one]",70%,0.113 µM
"COCc1cc(=O)n2nc(N3CCc4ncc(-c5cc(F)ccc5C)cc4C3)c(C)c(C)c2n1 [Compound 1-227, 7-(3-(5-fluoro-2-methylphenyl)-7,8-dihydro-1,6-naphthyridin-6(5H)-yl)-2-(methoxymethyl)-8,9-dimethyl-4H-pyrimido[1,2-b]pyridazin-4-one]",83%,0.135 µM
"COCc1cc(=O)n2nc(N3CCc4ncc(-c5ccccc5OC(F)(F)F)cc4C3)c(C)cc2n1 [Compound 1-363, 2-(methoxymethyl)-8-methyl-7-(3-(2-(trifluoromethoxy)phenyl)-7,8-dihydro-1,6-naphthyridin-6(5H)-yl)-4H-pyrimido[1,2-b] pyridazin-4-one]",65%,3.06 µM
"Cc1cc(=O)n2nc(N3CCc4ncc(N5CCO[C@H](C)C5)cc4C3)c(C)cc2n1 [Compound 2-18, (R)-2,8-dimethyl-7-(3-(2-methylmorpholino)-7,8-dihydro-1,6-naphthyridin-6(5H)-yl)-4H-pyrimido[1,2-b]pyridazin-4-one]",92%,0.08 µM
"Cc1cc(=O)n2nc(N3CCc4ncc(-c5ccccc5Cl)cc4C3)c(C)cc2n1 [Compound 1-256, 7-(3-(2-chlorophenyl)-7,8-dihydro-1,6-naphthyridin-6(5H)-yl)-2,8-dimethyl-4H-pyrimido[1,2-b]pyridazin-4-one]",71%,0.578 µM
"COCc1cc(=O)n2nc(N3CCc4ncc(-c5cnn(C)c5C)cc4C3)c(C)cc2n1 [Compound 1-366, 7-(3-(1,5-dimethyl-1H-pyrazol-4-yl)-7,8-dihydro-1,6-naphthyridin-6(5H)-yl)-2-(methoxymethyl)-8-methyl-4H-pyrimido[1,2-b]pyridazin-4-one]",72%,0.284 µM
"Cc1cc2nccc(=O)n2nc1N1CCc2ncc(-c3ccccn3)cc2C1 [Compound 1-349, 8-methyl-7-(3-(pyridin-2-yl)-7,8-dihydro-1,6-naphthyridin-6(5H)-yl)-4H-pyrimido[1,2-b] pyridazin-4-one]",69%,1.14 µM
"Cc1cc(=O)n2nc(N3CCc4ncc(-c5cc(F)nc(F)c5)cc4C3)c(C)c(C)c2n1 [Compound 1-246, 7-(3-(2,6-difluoropyridin-4-yl)-7,8-dihydro-1,6-naphthyridin-6(5H)-yl)-2,8,9-trimethyl-4H-pyrimido[1,2-b]pyridazin-4-one]",80%,1.02 µM
"Cc1cc(=O)n2nc(N3CCc4ncc(-c5cnn(C6CC6)c5)cc4C3)c(C)c(C)c2n1 [Compound 1-183, 7-(3-(1-cyclopropyl-1H-pyrazol-4-yl)-7,8-dihydro-1,6-naphthyridin-6(5H)-yl)-2,8,9-trimethyl-4H-pyrimido[1,2-b]pyridazin-4-one]",79%,0.582 µM
"Cc1cncc(-c2cnc3c(c2)CN(c2nn4c(=O)cc(C(F)F)nc4c(C)c2C)CC3)c1 [Compound 1-119, 2-(difluoromethyl)-8,9-dimethyl-7-(3-(5-methylpyridin-3-yl)-7,8-dihydro-1,6-naphthyridin-6(5H)-yl)-4H-pyrimido[1,2-b]pyridazin-4-one]",85%,
"Cc1cc2nccc(=O)n2nc1N1CCc2ncc(Nc3ccc(F)nc3)cc2C1 [Compound 2-87, 7-(3-((6-fluoropyridin-3-yl)amino)-7,8-dihydro-1,6-naphthyridin-6(5H)-yl)-8-methyl-4H-pyrimido[1,2-b]pyridazin-4-one]",99%,0.228 µM
"[2H]C1([2H])Cc2ncc(Nc3ccncc3C)cc2C([2H])([2H])N1c1nn2c(=O)ccnc2cc1C [Compound 2-165, 8-methyl-7-(3-((3-methylpyridin-4-yl)amino)-7,8-dihydro-1,6-naphthyridin-6(5H)-yl-5,5,7,7-d4)-4H-pyrimido[1,2-b]pyridazin-4-one]",66%,0.127 µM
"Cc1cc2nccc(=O)n2nc1N1CCc2ncc(-c3sc(C(=O)NC4CC4)cc3C)cc2C1 [Compound 1-428, N-cyclopropyl-4-methyl-5-(6-(8-methyl-4-oxo-4H-pyrimido[1,2-b]pyridazin-7-yl)-5,6,7,8-tetrahydro-1,6-naphthyridin-3-yl)thiophene-2-carboxamide]",80%,0.351 µM
"Cc1ncccc1-c1cnc2c(c1)CN(c1nn3c(=O)cc(C(F)F)nc3c(C)c1C)CC2 [Compound 1-115, 2-(difluoromethyl)-8,9-dimethyl-7-(3-(2-methylpyridin-3-yl)-7,8-dihydro-1,6-naphthyridin-6(5H)-yl)-4H-pyrimido[1,2-b]pyridazin-4-one]",91%,0.313 µM
"Cc1c(N2CCc3ncc(-c4ccc(F)c(F)c4)cc3C2)nn2c(=O)cc(C(F)F)nc2c1C [Compound 1-283, 2-(difluoromethyl)-7-(3-(3,4-difluorophenyl)-7,8-dihydro-1,6-naphthyridin-6(5H)-yl)-8,9-dimethyl-4H-pyrimido[1,2-b]pyridazin-4-one]",79%,0.9 µM
"COCc1cc(=O)n2nc(N3CCc4ncc(-c5ccc(OC(F)F)nc5)cc4C3)c(C)c(C)c2n1 [Compound 1-373, 7-(3-(6-(difluoromethoxy)pyridin-3-yl)-7,8-dihydro-1,6-naphthyridin-6(5H)-yl)-2-(methoxymethyl)-8,9-dimethyl-4H-pyrimido[1,2-b]pyridazin-4-one]",64%,0.299 µM
"Cc1cc(=O)n2nc(N3CCc4ncc(-c5ccc(F)c(F)c5)cc4C3)c(C)cc2n1 [Compound 1-213, 7-(3-(3,4-difluorophenyl)-7,8-dihydro-1,6-naphthyridin-6(5H)-yl)-2,8-dimethyl-4H-pyrimido[1,2-b]pyridazin-4-one]",82%,0.443 µM
"Cc1cc2nccc(=O)n2nc1N1CCc2ncc(Nc3cnccc3Cl)cc2C1 [Compound 2-135, 7-(3-((4-chloropyridin-3-yl)amino)-7,8-dihydro-1,6-naphthyridin-6(5H)-yl)-8-methyl-4H-pyrimido[1,2-b]pyridazin-4-one]",96%,0.112 µM
"Cc1cc2nc(C(F)F)cc(=O)n2nc1N1CCc2ncc(-c3cn(C)nc3C)cc2C1 [Compound 1-34, 2-(difluoromethyl)-7-(3-(1,3-dimethyl-1H-pyrazol-4-yl)-7,8-dihydro-1,6-naphthyridin-6(5H)-yl)-8-methyl-4H-pyrimido[1,2-b]pyridazin-4-one]",90%,0.073 µM
